The values below come from patent US20070043093A1, “Glucagon-like peptide-1 receptor agonists, the preparation and the use of the same” (priority 2003, published 2007).

Data set [1] addresses T1, GLP-1R (Rattus norvegicus, UniProt P32301).
T1 construct: stably transfected with the expression vector of GLP-1R gene
T1 sequence (P32301 22-463): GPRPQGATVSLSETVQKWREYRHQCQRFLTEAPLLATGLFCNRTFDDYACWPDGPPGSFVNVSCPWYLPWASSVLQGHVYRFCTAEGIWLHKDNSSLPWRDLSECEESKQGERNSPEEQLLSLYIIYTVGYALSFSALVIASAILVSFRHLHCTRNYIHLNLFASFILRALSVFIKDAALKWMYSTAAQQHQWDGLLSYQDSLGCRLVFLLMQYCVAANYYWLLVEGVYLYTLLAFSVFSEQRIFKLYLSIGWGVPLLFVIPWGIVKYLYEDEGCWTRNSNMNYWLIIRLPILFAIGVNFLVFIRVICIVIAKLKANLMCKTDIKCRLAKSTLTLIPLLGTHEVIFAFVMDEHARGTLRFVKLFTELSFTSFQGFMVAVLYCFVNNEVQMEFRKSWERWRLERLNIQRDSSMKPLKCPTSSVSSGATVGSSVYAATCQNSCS
The experiment in a line: Determination of the concentration of intracellular cAMP. Type of data set: cell-based, human. The text has this: Since the determination of the concentration of intracellular cAMP indirectly by detecting the expression of the report gene is an indirect process, the functional re-screen is directly performed with the cAMP-detecting kit in order to make sure that the compound can surely increase the concentration of intracellular cAMP.
HEK 293/GLP1R+Luc strain which stably express GLP-1R and luciferase (National new medicaments screening center)
HEK 293 cells are inoculated into 96-well plate in 20000 cells/100 μl/well, are cultured at 37[…] overnight. The compound 2f is diluted to 1.00E-03M, 1.00E-04M, 1.00E-05M, 1.00E-06M and 1.00E-07M with dimethyl sulphoxide, following by being inoculated into the above 96-well plate in […] and being cultured at 37 °C with 5% of CO2 for 1 hour. The concentration of intracellular cAMP is detected according to the specification of cAMP-Screen Direct TM system kit.

Data set [2] addresses T1, GLP-1R. Nature of the data set: Ligand-binding activity, competition with 125I-labelled GLP-1 on HEK 293/GLP1R+Luc cells. Also on record: species or system human. As to conditions: for EC50: competition with 125I-labelled GLP-1 (40 pM), 25 °C, 4 hours; for affinity to GLP-1R (in words): receptor-binding experiment, testing concentration range 0.1 nM to 100,000 nM. On the procedure: In order to determine the binding activity of the compound to the ligand, the cells which highly express GLP-1R are prepared, GLP-1 labelled with ^125I is used as the ligand, while adding into the candidate compound. When the candidate compound binds the ^125I-labelled GLP-1 competitively, the isotope labels on the cell membrane reduce. Accordingly, the affinity of the candidate compound to the ligand can be evaluated (J Mol Endocrinol. 2000 Vol.25:321-35; J Biomol Screen, 2000 Vol. 5:377-84).
20 mM of tris-HCl (pH 7.4) (Shanghai Shenggong biological engineering technology LTD), 100 mM of NaCl (Shanghai Chemical agents Cooperation), 15 mM of NaF (Shanghai Chemical agents Cooperation), 2 mM of deoxypyridoxine (Sigma Cooperation), 0.2 mM of phenylmethylsulfonyl fluoride (Sigma Cooperation), aprotinin (Shanghai Chemical agents Cooperation) (1 μg/ml), and leupeptin (Shanghai Chemical agents Cooperation) (1 μg/ml).
The candidate compound is diluted with dimethyl sulphoxide at the concentration gradient of 0.1 nM, 1 nM, 10 nM, 100 nM, 1000 nM, 10,000 nM, and 100,000 nM.
10^5 HEK 293/GLP1R+Luc cells in the logarithmic growth phase are incubated together with the ^125I-labelled GLP-1 positive peptide (the final concentration of 40 pM) in 200 μl of the testing buffer solution at 25 °C for 4 hours, while adding into the non-labeled positive peptide or the candidate compound. The cells are collected with the cell collector, following by washing three times with the washing solution. The scintillation liquid is added into them, and each well is counted with Microbata counter.

The target in data set [3] is T1, GLP-1R. The experiment in a line: Expression of the luciferase report gene in HEK 293/GLP1R+Luc cells. The settings on record: for EC50: luciferase report gene, HEK 293/GLP1R+Luc cells, 6 hours. It is filed as cell-based, human. From the text:
Upon that GLP-1R binds to GLP-1 or agonists, its Gasubunit is activated to stimulate the adenylate cyclase, which makes the increase in the concentration of intracellular cAMP. Since the promoter region of the proinsulin gene has the cAMP response element, upon binding of cAMP to this response element, the transcription of the proinsulin gene is activated, so as to increase the sensitivity of -- islet cells to glucose, and improve the expression and secretion of insulin (Diabetes, 2000, vol.49:1156-1164). The screening model employs the human embryonal nephric cell strain which is stably transfected with the expression vector of GLP-1R gene and the expression vector of luciferase report gene under the regulation of cAMP response element, to detect its response to the candidate compound (Cell Biology, 1992, Vol.89: 8641-8645; Proc. Natl. Acad. Sci. U.S.A. 1987, Vol.84: 3434-3438). When screening the candidate compounds, the compound which may induce the luciferase report gene to express have the activity of activating GLP-1.
Cell strain: HEK 293/GLP1R+Luc strain which stably express GLP-1R and luciferase (National New Medicaments Screening Center)
HEK 293/GLP1R+Luc cell in 20000 cells/100 μl/well are inoculated into 96-well plate, are cultured at 37[…] overnight with DMEM culture medium containing 10% of fetal calf serum and 500 μg/mL of G418. The candidate compounds wang516-2, wang502, and wang504 are respectively diluted to 2 mM, 1 mM, 0.3 mM, 0.1 mM, 0.03 mM, […], and 0.003 mM, and the other candidate compounds are diluted gradually from 30 mM for 8 times by a ratio of 1:3 to get a concentration gradient (i.e., 30 mM, 10 mM, 3 mM, 1 mM, 0.3 mM, 0.1 mM, 0.03 mM, and 0.01 mM), following by being added into the above 96-well plate at 1 μl/well. Then, the cells are cultured at 37[…] in 5% of CO2for 6 hours. The activity of luciferase is detected according to the specification of Steady-glo™ luciferase analysis system kit, and counting is performed with Victor 2 counting machine. The positive control adopts 30 nM of standard GLP-1.

`CCOc1cc(/C=C2/N=C(c3ccc(NC(C)=O)cc3)OC2=O)ccc1OC(=O)c1cccs1` [2f]: in data set [1] (30 μM and 100 μM), the “effect of high concentration on cells (cAMP decreasing trend)” value is listed as “cellulotoxic effect”. For the same molecule, the “concentration of cAMP with increase of compound concentration” value in data set [1] (293/GLP-1R cells, 1 hour, FIG. 2) is recorded as “exponential increase”. In data set [2], the EC50 is 31 µM and the “affinity to GLP-1R (in words)” value is “better affinity”. Besides, a half-maximal effect in data set [3] (EC50) was put at 13 µM. Regarding `COc1cc(C=C2N=C(c3ccccc3)OC2=O)ccc1OC(=O)c1cccs1` [wang405], the EC50 in data set [2] was > 100 µM. Regarding `COc1cc(/C=C2/N=C(c3ccc(N)cc3)OC2=O)ccc1OC(=O)c1cccs1` [wang420], the EC50 in data set [2] is > 100 µM. In the case of `COc1cc(C=C2N=C(c3ccc([N+](=O)[O-])cc3)OC2=O)ccc1OC(=O)c1cccs1` [wang450], the EC50 in data set [2] is > 100 µM. Turning to `COc1cc(/C=C2/N=C(c3ccc(NC(C)=O)cc3)OC2=O)ccc1OC(=O)c1cccs1` [wang462], the EC50 in data set [2] is > 100 µM; in data set [3], 11.6 µM. In the case of `COc1cc(/C=C2/N=C(c3ccc(NC(=O)C4CC4)cc3)OC2=O)ccc1OC(=O)c1cccs1` [wang488], it took 6.73 µM to reach a half-maximal effect in data set [3] (EC50).

`COc1cc(/C=C2/N=C(c3ccc(NC(=O)C4CCC4)cc3)OC2=O)ccc1OC(=O)c1cccs1` [wang502]: in data set [3], the EC50 is 3.31 µM. Against the preceding molecule, the EC50 is about 2-fold lower. In the case of `COc1cc(/C=C2/N=C(c3ccc(NC(=O)C(C)(C)C)cc3)OC2=O)ccc1OC(=O)c1cccs1` [wang504], the midpoint of the response in data set [3], the EC50, lay at 4.87 µM. In the case of `COc1cc(C=C2N=C(c3ccc(NC(=O)C4CCCC4)cc3)OC2=O)ccc1OC(=O)c1cccs1` [wang516], in data set [2], the 50% effective concentration (EC50) lay within 40 to 80 µM and the “affinity to GLP-1R (in words)” value is “little week”. In addition, in data set [3], the EC50 worked out at 6.85 µM. For the molecule `COc1cc(/C=C2/N=C(c3ccc(NC(=O)OC(C)(C)C)cc3)OC2=O)ccc1OC(=O)c1cccs1` [wang520], in data set [2], the concentration for a half-maximal effect (EC50) lay within 60 to 100 µM and the “affinity to GLP-1R (in words)” value is reported as “little week”. Also, the “relative activity of luciferase” value in data set [3] (final concentration of 30 μM, luciferase activity induced by 30 nM standard GLP-1 regarded as 100%, FIG. 1) is recorded as 94%. The same molecule came in with an EC50 in data set [3] of 4.6 µM. For the molecule `COc1cc(/C=C2/N=C(c3ccc(NC(=O)c4ccccc4)cc3)OC2=O)ccc1OC(=O)c1cccs1` [wang524], the values for the EC50 in data set [2] and in data set [3] were > 100 µM and 46.5 µM, respectively. Consider `COc1cc(/C=C2/N=C(c3ccc(NC(=O)C(O)c4ccccc4)cc3)OC2=O)ccc1OC(=O)c1cccs1` (stereo not shown) [wang554], for which it took 5.24 µM to reach a half-maximal effect in data set [3] (EC50). `COc1cc(C=C2N=C(c3ccc(NC(=O)Nc4ccc(C5=NC(=Cc6ccc(OC(=O)c7cccs7)c(OC)c6)C(=O)O5)cc4)cc3)OC2=O)ccc1OC(=O)c1cccs1` [wang866]: the 50% effective concentration (EC50) in data set [2] is > 100 µM; in data set [3] it was 54.4 µM.
